Experimental data taken from patent US11731985B2, “Compositions and methods for treating cancer” (Hb Therapeutics Inc., priority 2018, dated 2023).

tested on: LN229 cells; assay: Cell viability assay, LN229 cells; format: cell-based, human; conditions: Homo sapiens, LN-229, LN229 cells, read-out: Inhibition of Cancer Cell Growth (IC50)
Protocol: Each of the compounds was used to treat the cancer LN229 cells and examined first by western and dot blot assays for the degradation of SUMO1 protein and then by cell viability assay for the IC50 values of anticancer activity.
LN229 cell were treated with a series of dilutions of CPD1 and examined by cell viability assay for cell growth inhibition (FIG. 2B). […] Therefore, CPD1 acts as the degrader of SUMO1 protein and inhibitor of SUMO1 conjugation in cancer cells.

O=C(Nc1ccc(Cl)c(Cl)c1)Nc1nc2ccc([N+](=O)[O-])cc2s1 [Compound 2] and O=C(Nc1nc2ccc([N+](=O)[O-])cc2s1)Nc1c(Cl)cccc1Cl [Compound 14] cannot be ordered by IC50: no more than 5 µM for the first, no more than 20 µM for the second.

O=C(Nc1cccc([N+](=O)[O-])c1)Nc1nc2ccc(Cl)cc2s1 [Compound 4] and O=C(Nc1cccc([N+](=O)[O-])c1)Nc1nc2ccc(F)cc2s1 [Compound 10] cannot be ordered by IC50: no more than 5 µM for the first, no more than 5 µM for the second.

Going from O=C(Nc1ccc([N+](=O)[O-])cc1)Nc1nc2ccc(Cl)cc2s1 [Compound 6] to O=C(Nc1ccc(Cl)cc1)Nc1nc2cccc([N+](=O)[O-])c2s1 [Compound 15], the IC50 rises from no more than 5 µM to greater than 20 µM.

O=C(Nc1ccc(Cl)cc1)Nc1nc2ccccc2s1 [Compound 7] and O=C(Nc1ccccc1)Nc1nc2ccccc2s1 [Compound 11] cannot be ordered by IC50: greater than 20 µM for the first, greater than 20 µM for the second.

O=C(Nc1nc2ccccc2s1)Nc1ccccc1Cl [Compound 8] and O=C(Nc1nc2ccccc2s1)Nc1ccc([N+](=O)[O-])cc1Cl [Compound 9] cannot be ordered by IC50: greater than 20 µM for the first, greater than 20 µM for the second.

O=C(Nc1cccc([N+](=O)[O-])c1)Nc1nc2c(Cl)cccc2s1 [Compound 12] and O=C(Nc1ccc(F)c([N+](=O)[O-])c1)Nc1nc2c(Cl)cccc2s1 [Compound 17] cannot be ordered by IC50: no more than 20 µM for the first, greater than 20 µM for the second.

Compared with N#Cc1ccc(NC(=O)Nc2nc3ccc(C(F)(F)F)cc3s2)cc1C#N [Compound 13], N#Cc1ccc(NC(=O)Nc2nc3ccc(Cl)cc3s2)cc1C#N [Compound 91] is lower in IC50: greater than 20 µM for the first, no more than 5 µM for the second. The second is the more potent here.

Compared with O=C(Nc1nc2cccc([N+](=O)[O-])c2s1)Nc1ccc(Cl)cc1F [Compound 16], N#Cc1cc(NC(=O)Nc2nc3ccc(Cl)cc3s2)ccc1F [Compound 92] is lower in IC50: greater than 20 µM for the first, no more than 5 µM for the second. The second is the more potent here.

CS(=O)(=O)c1ccc2nc(NC(=O)Nc3cccc(Cl)c3)sc2c1 [Compound 20] and O=C(Nc1cccc(Cl)c1)Nc1nc2ccc(Br)cc2s1 [Compound 21] cannot be ordered by IC50: greater than 20 µM for the first, greater than 20 µM for the second.

Cc1nc2ccc(NC(=O)Nc3cccc([N+](=O)[O-])c3)cc2s1 [Compound 22] and N#Cc1ccc2nc(NC(=O)Nc3cccc([N+](=O)[O-])c3)sc2c1 [Compound 23] cannot be ordered by IC50: no more than 20 µM for the first, no more than 5 µM for the second.

O=C(Nc1nc2ccc([N+](=O)[O-])cc2s1)c1ccc(F)cc1 [Compound 25] and O=C(Cc1ccc(Cl)cc1)Nc1nc2ccc([N+](=O)[O-])cc2s1 [Compound 26, 2-(4-chlorophenyl)-N-(6-nitro-1,3-benzothiazol-2-yl)acetamide] cannot be ordered by IC50: greater than 20 µM for the first, no more than 20 µM for the second.

First: O=C(Nc1cccc(C(=O)O)c1)Nc1nc2ccc([N+](=O)[O-])cc2s1 [Compound 27]
Second: N#Cc1cccc(NC(=O)Nc2nc3ccc([N+](=O)[O-])cc3s2)c1 [Compound 72]
The IC50 of the first is higher: greater than 20 µM for the first, no more than 5 µM for the second.

COC(=O)c1ccc2nc(NC(=O)Nc3cccc([N+](=O)[O-])c3)sc2c1 [Compound 28] and CCOC(=O)c1ccc2nc(NC(=O)Nc3cccc(C#N)c3)sc2c1 [Compound 53] cannot be ordered by IC50: no more than 20 µM for the first, no more than 5 µM for the second.

First: O=C1N(c2cccc(Cl)c2)CCCN1c1nc2ccc([N+](=O)[O-])cc2s1 [Compound 29]
Second: CN1CCN(c2cccc(NC(=O)Nc3nc4ccc(C#N)cc4s3)c2)CC1 [Compound 83]
The IC50 of the first is higher: greater than 20 µM for the first, no more than 5 µM for the second. The second is the more potent here.

N#Cc1ccc2nc(NC(=O)Nc3cccc(Br)c3)sc2c1 [Compound 31, 1-(3-bromophenyl)-3-(6-cyano-1,3-benzothiazol-2-yl)urea] and N#Cc1cccc(NC(=O)Nc2nc3ccc(Br)cc3s2)c1 [Compound 74] cannot be ordered by IC50: no more than 5 µM for the first, no more than 5 µM for the second.

N#Cc1ccc2nc(NC(=O)Nc3cccc(-c4ccc(F)cc4)c3)sc2c1 [Compound 32, 1-(6-cyano-1,3-benzothiazol-2-yl)-3-[3-(4-fluorophenyl)phenyl]urea] and Cc1ccc(-c2cccc(NC(=O)Nc3nc4ccc(C#N)cc4s3)c2)cc1 [Compound 34] cannot be ordered by IC50: no more than 5 µM for the first, no more than 5 µM for the second.

COc1ccc(-c2cccc(NC(=O)Nc3nc4ccc(C#N)cc4s3)c2)cc1 [Compound 33] and COc1cccc(NC(=O)Nc2nc3ccc(C#N)cc3s2)c1 [Compound 38] cannot be ordered by IC50: no more than 5 µM for the first, no more than 5 µM for the second.

Cc1ccc(NC(=O)Nc2nc3ccc(C#N)cc3s2)nc1 [Compound 35] and COc1cccc(NC(=O)Nc2nc3ccc(C#N)cc3s2)n1 [Compound 68] cannot be ordered by IC50: greater than 20 µM for the first, greater than 20 µM for the second.

Compared with N#Cc1ccc2nc(NC(=O)Nc3ccc(Br)cc3)sc2c1 [Compound 36], CC(C)(C)c1ccc(NC(=O)Nc2nc3ccc(C#N)cc3s2)cc1 [Compound 40] is higher in IC50: no more than 5 µM for the first, greater than 20 µM for the second.

N#Cc1ccc2nc(NC(=O)Nc3cc(Cl)cc(Cl)c3)sc2c1 [Compound 37] and N#Cc1cc(Cl)cc(NC(=O)Nc2nc3ccc(Cl)cc3s2)c1 [Compound 93] cannot be ordered by IC50: no more than 5 µM for the first, no more than 5 µM for the second.

N#Cc1ccc2nc(NC(=O)Nc3ccc(Cl)c(Cl)c3)sc2c1 [Compound 41] and N#Cc1cc(NC(=O)Nc2nc3ccc(Cl)cc3s2)ccc1Cl [Compound 85] cannot be ordered by IC50: no more than 5 µM for the first, no more than 5 µM for the second.

Compared with N#Cc1cccc(NC(=O)Nc2nc3ccc(Cl)cc3s2)c1 [Compound 42], Cc1ccc2nc(NC(=O)Nc3cccc(C#N)c3)sc2c1 [Compound 44] is higher in IC50: no more than 5 µM for the first, greater than 20 µM for the second.

COc1ccc2nc(NC(=O)Nc3cccc(C#N)c3)sc2c1 [Compound 43] and N#Cc1cccc(NC(=O)Nc2nc3ccc(F)cc3s2)c1 [Compound 70] cannot be ordered by IC50: no more than 20 µM for the first, no more than 5 µM for the second.

N#Cc1ccc2nc(NC(=O)Nc3ccccc3)sc2c1 [Compound 45] and N#Cc1cccc(NC(=O)Nc2nc3ccccc3s2)c1 [Compound 48] cannot be ordered by IC50: no more than 5 µM for the first, no more than 20 µM for the second.

N#Cc1cccc(NC(=O)NC2Cc3ccccc3C2)c1 [Compound 46] and N#Cc1cccc(NC(=O)N2CCc3ccccc3C2)c1 [Compound 47] cannot be ordered by IC50: greater than 20 µM for the first, greater than 20 µM for the second.

CC(C)(C)OC(=O)N1CCc2nc(NC(=O)Nc3cccc(C#N)c3)sc2C1 [Compound 49] and CC(=O)N1CCc2nc(NC(=O)Nc3cccc(C#N)c3)sc2C1 [Compound 65] cannot be ordered by IC50: no more than 20 µM for the first, greater than 20 µM for the second.

N#Cc1cccc(NC(=O)Nc2nc3c(s2)CNCC3)c1 [Compound 50] and N#Cc1cccc(NC(=O)Nc2nc3c(s2)CCCC3)c1 [Compound 59] cannot be ordered by IC50: no more than 20 µM for the first, no more than 20 µM for the second.

N#Cc1ccc2nc(NC(=O)Nc3ccccc3C(F)(F)F)sc2c1 [Compound 51] and N#Cc1ccc2nc(NC(=O)NCc3ccccc3)sc2c1 [Compound 73] cannot be ordered by IC50: no more than 20 µM for the first, no more than 20 µM for the second.

CN1CCc2nc(NC(=O)Nc3cccc(C#N)c3)sc2C1 [Compound 52] and N#Cc1cccc(NC(=O)Nc2nc3c(s2)COCC3)c1 [Compound 58] cannot be ordered by IC50: greater than 20 µM for the first, no more than 20 µM for the second.

CC(C(=O)Nc1nc2ccc(C#N)cc2s1)c1ccccc1 (stereo not shown) [Compound 54] and Cc1ccc(C(C)C(=O)Nc2nc3ccc(C#N)cc3s2)cc1 (stereo not shown) [Compound 55] cannot be ordered by IC50: greater than 20 µM for the first, no more than 20 µM for the second.

CC(C)(C(=O)Nc1nc2ccc(C#N)cc2s1)c1ccccc1 [Compound 56] and CN(C(=O)Nc1nc2ccc(C#N)cc2s1)c1ccccc1 [Compound 76] cannot be ordered by IC50: greater than 20 µM for the first, greater than 20 µM for the second.

Going from N#Cc1ccc2nc(NC(=O)C3(c4ccccc4)CC3)sc2c1 [Compound 57] to N#Cc1cccc(NC(=O)Nc2nc3ccc(C#N)cc3s2)c1 [Compound 66], the IC50 falls from greater than 20 µM to no more than 5 µM. The second is the more potent here.

N#Cc1cccc(NC(=O)Nc2nc3ccc(C(=O)N4CCOCC4)cc3s2)c1 [Compound 60] and N#Cc1ccc2nc(NC(=O)Nc3cccc(N4CCOCC4)c3)sc2c1 [Compound 82] cannot be ordered by IC50: greater than 20 µM for the first, no more than 20 µM for the second.

CC(C)(C)OC(=O)NC1CCc2nc(NC(=O)Nc3cccc(C#N)c3)sc2C1 (stereo not shown) [Compound 61] and CC(C)(C)OC(=O)N[C@@H]1CCc2nc(NC(=O)Nc3cccc(C#N)c3)sc2C1 [Compound 62] cannot be ordered by IC50: no more than 5 µM for the first, no more than 5 µM for the second.

CC(C)(C)OC(=O)N[C@H]1CCc2nc(NC(=O)Nc3cccc(C#N)c3)sc2C1 [Compound 63] and N#Cc1cccc(NC(=O)Nc2nc3c(s2)CC(C(N)=O)CC3)c1 (stereo not shown) [Compound 89] cannot be ordered by IC50: no more than 20 µM for the first, greater than 20 µM for the second.

CN(C)C(=O)c1ccc2nc(NC(=O)Nc3cccc(C#N)c3)sc2c1 [Compound 64] and CC(=O)Nc1ccc2nc(NC(=O)Nc3cccc(C#N)c3)sc2c1 [Compound 75] cannot be ordered by IC50: greater than 20 µM for the first, greater than 20 µM for the second.

N#Cc1cccc(NC(=O)Nc2nc3c(s2)CC(N)CC3)c1 (stereo not shown) [Compound 67] and CN(C)C1CCc2nc(NC(=O)Nc3cccc(C#N)c3)sc2C1 (stereo not shown) [Compound 69] cannot be ordered by IC50: no more than 20 µM for the first, no more than 20 µM for the second.

Going from COc1cc(NC(=O)Nc2nc3ccc(C#N)cc3s2)ccn1 [Compound 71] to COc1cncc(NC(=O)Nc2nc3ccc(C#N)cc3s2)c1 [Compound 81], the IC50 rises from no more than 5 µM to greater than 20 µM.

Going from N#Cc1cccc(NC(=O)Nc2nc3ccc(N)cc3s2)c1 [Compound 77] to N#Cc1ccc(Cl)c(NC(=O)Nc2nc3ccc(Cl)cc3s2)c1 [Compound 86], the IC50 falls from greater than 20 µM to no more than 5 µM. The second is the more potent here.

CCOC(=O)C1CCc2nc(NC(=O)Nc3cccc(C#N)c3)sc2C1 (stereo not shown) [Compound 79] and CCOC(=O)C1CCc2nc(NC(=O)Nc3cccc(Cl)c3)sc2C1 (stereo not shown) [Compound 80] cannot be ordered by IC50: greater than 20 µM for the first, greater than 20 µM for the second.

N#Cc1cc(NC(=O)Nc2nc3ccc(Cl)cc3s2)ccc1Br [Compound 87] and Cc1ccc(NC(=O)Nc2nc3ccc(Cl)cc3s2)cc1C#N [Compound 88] cannot be ordered by IC50: no more than 5 µM for the first, no more than 20 µM for the second.

In the case of NC(=O)C1CCc2nc(NC(=O)Nc3cccc(Cl)c3)sc2C1 (stereo not shown) [Compound 90, 2-[(3-chlorophenyl)carbamoylamino]-4,5,6,7-tetrahydro-1,3-benzothiazole-6-carboxamide], the IC50 is reported as greater than 20 µM.

same assay, conditions: LN229 cells, read-out: Inhibition of Cancer Cell Growth (IC50)

O=C(Nc1cccc(Cl)c1)Nc1nc2ccc([N+](=O)[O-])cc2s1 [Compound 3] and O=C(Nc1ccc(Cl)cc1)Nc1nc2ccc([N+](=O)[O-])cc2s1 [Compound 5] cannot be ordered by IC50: no more than 5 µM for the first, no more than 5 µM for the second.

O=C(Nc1ccc(Cl)cc1)Nc1nc2ccc([N+](=O)[O-])cc2s1 [Compound 18] and O=C(Nc1cccc(Cl)c1)Nc1nc2ccc([N+](=O)[O-])cc2s1 [Compound 19] cannot be ordered by IC50: greater than 20 µM for the first, greater than 20 µM for the second.

Compound CCc1ccc(NC(=O)Nc2nc3ccc(C#N)cc3s2)cc1 [Compound 39] has an IC50 of no more than 5 µM.
